Reference: PubChem BioAssay AID1996
In brackets after ≈: the same amount, converted by molar mass.

settings: buffer; pH 7.4; 200.0 µM

**Q.** With `CC(C)C(=O)NS(=O)(=O)c1ccc(NS(C)(=O)=O)cc1` as the compound, how does the solubility kinetic read?
**A.** > 48.1 µg/mL

**Q.** With `S=C(NCc1ccco1)N1CCN(c2cccc(Cl)c2)CC1` as the compound, how does the solubility kinetic read?
**A.** 12 µg/mL (≈ 35.7 µM)

**Q.** For `CCn1c(=O)c(C(=O)Nc2ccccc2F)c(O)c2ccccc21`, which solubility kinetic is on record?
**A.** 0.4 µg/mL (≈ 1.23 µM)

**Q.** Which solubility kinetic does the source give for `CC1(C)COCN1C(=O)c1ccc(C#N)cc1` here?
**A.** > 34.5 µg/mL

**Q.** With `O=c1[nH]c(=S)n(C2CC2)c(O)c1C=NCCN1CCOCC1` as the compound, how does the solubility kinetic read?
**A.** > 48.7 µg/mL

**Q.** For `CCOC(=O)C1CCN(Cc2cc(Cl)c3ccccc3c2O)CC1`, which solubility kinetic is on record?
**A.** 6.2 µg/mL (≈ 17.8 µM)

**Q.** With `O=C(Nc1nccs1)c1cc([N+](=O)[O-])ccc1Cl` as the compound, how does the solubility kinetic read?
**A.** 3.7 µg/mL (≈ 13 µM)

**Q.** Which solubility kinetic does the source give for `CSc1nc(N(C)C)nc(N(C)C#N)n1` here?
**A.** > 33.6 µg/mL

**Q.** With `CC(=O)N/C(=C\c1ccccc1)C(=O)OCc1ccc(F)cc1` as the compound, how does the solubility kinetic read?
**A.** 43.4 µg/mL (≈ 139 µM)

**Q.** With `COC(=O)Cn1ccc(-c2ccc(Cl)cc2)c(C#N)c1=O` as the compound, how does the solubility kinetic read?
**A.** > 45.4 µg/mL

**Q.** With `OC1(C(F)(F)F)CC(c2ccc3ccccc3c2)=NO1` (stereo not given) as the compound, how does the solubility kinetic read?
**A.** > 42.2 µg/mL

**Q.** Which solubility kinetic does the source give for `O=C(COC(=O)c1ccccc1)Nc1ncc([N+](=O)[O-])s1` here?
**A.** > 46.1 µg/mL

**Q.** With `Cn1nc(-c2ccc(Cl)cc2)cc1NC(=O)CCCC(=O)O` as the compound, how does the solubility kinetic read?
**A.** > 48.3 µg/mL

**Q.** With `CCN(CC)C(=S)SC1=CCS(=O)(=O)C1` as the compound, how does the solubility kinetic read?
**A.** 26.8 µg/mL (≈ 101 µM)

**Q.** For `COc1ccc(OCCOCCN2CCN(C)CC2)cc1.O=C(O)C(=O)O`, which solubility kinetic is on record?
**A.** 54.2 µg/mL

**Q.** For `CC(C)(C)c1cc(CCC(=O)Nc2ccncc2)cc(C(C)(C)C)c1O`, which solubility kinetic is on record?
**A.** 40.4 µg/mL (≈ 114 µM)

**Q.** For `O=C(COC(=O)Cc1ccc([N+](=O)[O-])cc1)NCc1ccc2c(c1)OCO2`, which solubility kinetic is on record?
**A.** 55.5 µg/mL (≈ 149 µM)

**Q.** With `CNCCCN1c2ccccc2CCc2ccccc21.Cl` as the compound, how does the solubility kinetic read?
**A.** > 45.4 µg/mL

**Q.** Which solubility kinetic does the source give for `O=c1[nH]snc1N1CCOCC1` here?
**A.** > 28.1 µg/mL

**Q.** Which solubility kinetic does the source give for `CCC(=O)Nc1cc2[nH]c(=O)cc(C)c2cc1C` here?
**A.** 33.4 µg/mL (≈ 137 µM)

**Q.** Which solubility kinetic does the source give for `COc1ccc(C2N(c3ccccc3)C(=O)C2(F)F)cc1OC` (stereo not given) here?
**A.** 36.2 µg/mL (≈ 113 µM)

**Q.** Which solubility kinetic does the source give for `CCOc1ccc(CCNC(=O)COC(=O)/C=C/c2ccco2)cc1OCC` here?
**A.** 39.5 µg/mL (≈ 102 µM)

**Q.** For `Cc1c(C(=O)N2CCc3ccccc3C2)oc2ccccc12`, which solubility kinetic is on record?
**A.** 7.5 µg/mL (≈ 25.7 µM)

**Q.** For `COc1ccc(S(=O)(=O)N2CCOCC2)c2ccccc12`, which solubility kinetic is on record?
**A.** 40.6 µg/mL (≈ 132 µM)

**Q.** For `C[N+](C)=C1SCC(C)(/C=N/O)S1.[Br-]` (stereo not given), which solubility kinetic is on record?
**A.** > 42.8 µg/mL

**Q.** Which solubility kinetic does the source give for `COc1cccc(-c2nc(CCl)cs2)c1OC.Cl` here?
**A.** 32.4 µg/mL

**Q.** With `COc1ccc(OC)c(NC(=O)CS(=O)(=O)Cc2ccccc2)c1` as the compound, how does the solubility kinetic read?
**A.** 3.1 µg/mL (≈ 8.87 µM)

**Q.** Which solubility kinetic does the source give for `Cc1cccc(N2CCN(C(=O)CCc3nc4ccccc4c(=O)[nH]3)CC2)c1C` here?
**A.** 2 µg/mL (≈ 5.12 µM)

**Q.** With `COc1ccc(CNC(=O)CSc2nc3ccccc3n2C(C)=O)cc1` as the compound, how does the solubility kinetic read?
**A.** 21.2 µg/mL (≈ 57.4 µM)

**Q.** With `COc1ccc(CNC(=O)c2cc3cccc(O)c3oc2=N)cc1` as the compound, how does the solubility kinetic read?
**A.** 7.2 µg/mL (≈ 22.2 µM)

**Q.** Which solubility kinetic does the source give for `CC1CCCCN1S(=O)(=O)Cc1ccccc1Cl` (stereo not given) here?
**A.** > 43.2 µg/mL

**Q.** With `COc1cccc2cc(C(=O)NC3CC4CCC3C4)oc12` (stereo not given) as the compound, how does the solubility kinetic read?
**A.** 31.6 µg/mL (≈ 111 µM)

**Q.** For `Cc1ccc(S(=O)(=O)N2CCOCC2)cc1NC(=O)COC(=O)CCc1c[nH]c2ccccc12`, which solubility kinetic is on record?
**A.** 26.4 µg/mL (≈ 54.4 µM)

**Q.** For `Cc1ccc(NC(=O)Nc2ccc3c(c2)C(=O)OC3)cc1Cl`, which solubility kinetic is on record?
**A.** < 0.3 µg/mL

**Q.** Which solubility kinetic does the source give for `COc1ccccc1CCNC(=O)Cn1c(=O)oc2ccccc21` here?
**A.** > 49 µg/mL

**Q.** For `CNc1nc(-c2ccccc2)cc(-c2ccccc2)n1`, which solubility kinetic is on record?
**A.** 1.4 µg/mL (≈ 5.36 µM)

**Q.** For `CCOC(=O)c1ccc(NC(=O)NCc2cccnc2)cc1`, which solubility kinetic is on record?
**A.** > 44.9 µg/mL

**Q.** Which solubility kinetic does the source give for `CSc1ncc(Cl)c(C(=O)Nc2ccccc2C)n1` here?
**A.** 1.3 µg/mL (≈ 4.43 µM)

**Q.** With `O=C(Nc1nccs1)c1ccc(Br)cc1` as the compound, how does the solubility kinetic read?
**A.** 2.2 µg/mL (≈ 7.77 µM)

**Q.** With `Cc1ccc(-c2nc(N)sc2-c2ccc(C)cc2)cc1` as the compound, how does the solubility kinetic read?
**A.** 0.5 µg/mL (≈ 1.78 µM)

**Q.** With `CCc1ccccc1NC(=O)CCS(=O)(=O)c1ccc(C)cc1` as the compound, how does the solubility kinetic read?
**A.** > 49.7 µg/mL

**Q.** For `CCc1sc(C(=O)NC(C)C2CCCO2)cc1Br` (stereo not given), which solubility kinetic is on record?
**A.** 49.5 µg/mL (≈ 149 µM)

**Q.** Which solubility kinetic does the source give for `COc1cc(CCC(=O)Nc2nccs2)cc(OC)c1OC` here?
**A.** > 48.4 µg/mL

**Q.** Which solubility kinetic does the source give for `Cc1cc(C(=O)Nc2ccccc2C)on1` here?
**A.** > 32.4 µg/mL

**Q.** For `N#C/C(=C(/O)c1cccs1)c1nc2ccccc2[nH]1`, which solubility kinetic is on record?
**A.** 1.2 µg/mL (≈ 4.49 µM)

**Q.** Which solubility kinetic does the source give for `CS(=O)(=O)N(CC(=O)Nc1ccccc1F)C1CCCCC1` here?
**A.** 47.3 µg/mL (≈ 144 µM)

**Q.** Which solubility kinetic does the source give for `COc1ccc(NC(=O)C2CCN(c3cnccn3)CC2)cc1OC` here?
**A.** 24.7 µg/mL (≈ 72.1 µM)

**Q.** With `O=C(CN1C(=O)NC2(CCCCCC2)C1=O)N1CCCCC1` as the compound, how does the solubility kinetic read?
**A.** > 46.1 µg/mL

**Q.** For `COC(=O)c1cc(C(=O)NC(C)C2CC3CCC2C3)cc([N+](=O)[O-])c1` (stereo not given), which solubility kinetic is on record?
**A.** 11 µg/mL (≈ 31.8 µM)

**Q.** For `O=C(COC(=O)c1ccc2ccccc2n1)c1ccc(F)cc1`, which solubility kinetic is on record?
**A.** 16.8 µg/mL (≈ 54.3 µM)

**Q.** For `Cc1ccc(-c2[nH]c(=S)[nH]c(=O)c2C#N)cc1`, which solubility kinetic is on record?
**A.** 30.8 µg/mL (≈ 127 µM)

**Q.** Which solubility kinetic does the source give for `Cc1ccc(S(=O)(=O)N[C@H](C(=O)OCC(=O)NC(=O)NCc2ccco2)C(C)C)cc1` here?
**A.** > 67.7 µg/mL

**Q.** For `CN(C)C(=O)c1cc(C(=O)c2ccccc2Br)c[nH]1`, which solubility kinetic is on record?
**A.** 44.4 µg/mL (≈ 138 µM)

**Q.** With `C[C@@H]1C(NC(=O)c2ccccc2)CC2CC1C2(C)C` (stereo not given in full) as the compound, how does the solubility kinetic read?
**A.** 6.4 µg/mL (≈ 24.9 µM)

**Q.** Which solubility kinetic does the source give for `O=C1CN(C(=S)Nc2ccc(OC(F)F)cc2)CCN1` here?
**A.** > 45.2 µg/mL

**Q.** Which solubility kinetic does the source give for `Cc1onc(-c2c(Cl)cccc2Cl)c1C(=O)N=S(C)(=O)c1ccccc1` (stereo not given) here?
**A.** 1.8 µg/mL (≈ 4.4 µM)

**Q.** Which solubility kinetic does the source give for `OCC(O)CN(c1ccccc1)c1ccccc1` (stereo not given) here?
**A.** > 36.5 µg/mL

**Q.** For `CCCn1nc(C(=O)NC2CC2)c2ccccc2c1=O`, which solubility kinetic is on record?
**A.** > 40.7 µg/mL

**Q.** With `Cc1ccc(N/C=C2\CCCCC2=O)nc1` as the compound, how does the solubility kinetic read?
**A.** 31.6 µg/mL (≈ 146 µM)

**Q.** Which solubility kinetic does the source give for `CCOc1ccc(C(=O)CC(C(=O)O)N2CCCCC2)cc1` (stereo not given) here?
**A.** > 45.8 µg/mL
